≈ marks a conversion by molar mass, not a printed value.
conditions: buffer; pH 7.4; 200.0 µM

SMILES | solubility kinetic [µg/mL]
COc1cc(OC)c(C(=O)Nc2ccc3ccccc3c2)cc1OC | < 0.7
O=C(Nc1cccc(S(=O)(=O)NC2=NCCC2)c1)c1ccc(F)cc1 | > 54.2
Cc1cc(C)cc(OCC(=O)N2CCN(c3ncccn3)CC2)c1 | > 49
O=C(NCCc1ccc(Cl)cc1)C1COc2ccccc2O1 (centres undefined) | 5.5 (≈ 17.3 µM)
Cc1cc(OCCCn2ccnc2)ccc1[N+](=O)[O-].O=C(O)C(=O)O | 36.8
COc1cc(C)nc(NS(=O)(=O)c2ccccc2Cl)n1 | 38.9 (≈ 124 µM)
CC(=O)Nc1nc2ccccc2n1Cc1ccc(Cl)cc1 | 7.8 (≈ 26 µM)
COc1cccc(OC)c1C(=O)Nc1nc(-c2ccccc2)cs1 | 1.6 (≈ 4.7 µM)
C=Cc1cccc(NC(=O)c2ccc(NC(=O)c3ccco3)cc2)c1 | 3.1 (≈ 9.33 µM)
COc1ccc(Nc2ccncc2[N+](=O)[O-])cc1 | > 36.8
O=C1COc2ccc(S(=O)(=O)NCc3ccccc3)cc2N1 | 11.6 (≈ 36.4 µM)
O=S(=O)(NCCNc1nccc(C(F)(F)F)n1)c1ccccc1 | 50.2 (≈ 145 µM)
COc1ccc(Cl)cc1C(=O)Nc1nc(C)cc(C)n1 | > 43.8
COc1ccc(N2CCN(C(=O)/C=C/c3ccco3)CC2)cc1 | 10.5 (≈ 33.6 µM)
CSc1ncccc1C(=O)NC(C)CCc1ccccc1 (centres undefined) | 11.9 (≈ 39.6 µM)
Cn1c(=O)c2c([nH]c(=O)n2C)n(Cc2ccccc2)c1=O | > 42.9
COc1ccc(/C=C/C(=O)N2CCN(C)CC2)cc1OC | > 43.6
CCC(=O)c1c[nH]c(C(=O)NCc2ccccc2OC)c1 | 2.8 (≈ 9.78 µM)
Cn1c(SCc2ccccc2Cl)nc2c1c(=O)[nH]c(=O)n2C | 0.4 (≈ 1.19 µM)
O=C(O)COCC(=O)NC1CCN(Cc2ccccc2)CC1 | > 46
O=C(O)c1ccc(NC(=O)c2ccccc2NC(=O)c2cccc(F)c2)cc1 | > 56.8
COc1nc(C)ccc1-c1noc(-c2cccnc2)n1 | 14.6 (≈ 54.4 µM)
CCCCC(=O)Nc1cc(C)c(NC(=O)c2ccco2)cn1 | > 45.2
CCn1c(CNC(=O)c2cccnc2)cc2ccccc21 | > 41.9

SMILES | solubility kinetic [µg/mL]
COc1ccccc1NC(=O)C1(c2ccccc2)CCCC1 | 7.9 (≈ 26.7 µM)
N#Cc1ccc(OCC(=O)OCC(=O)c2ccc[nH]2)cc1 | > 42.6
CN(C)c1cccc(NC(=O)NC2(C)CCS(=O)(=O)C2)c1 (centres undefined) | > 46.7
Cc1cc(C)nc(NC2=NCCN2C(=S)Nc2ccc(C)c(C)c2)n1 | 2.4 (≈ 6.77 µM)
Cc1ccccc1S(=O)(=O)/N=C(/c1ccccc1)N(C)C | 44.9 (≈ 148 µM)
N/C(=N\OC(=O)Cc1ccccc1[N+](=O)[O-])c1ccccn1 | 42.3 (≈ 141 µM)
O=c1[nH]c(=S)[nH]c(O)c1/C=C1/C=c2ccccc2=N1 | 1.8 (≈ 6.63 µM)
CCN(CC(=O)NC1CCS(=O)(=O)C1)S(=O)(=O)c1ccc(Br)cc1 (centres undefined) | > 65.9
CCCn1nc(C(=O)NC2CCCC2)c2ccccc2c1=O | > 44.9
Cc1noc(C)c1COC(=O)c1ccc(N(C)C)cc1 | 1.6 (≈ 5.83 µM)
Cc1cccc(OCC(O)CN2CCOCC2)c1.Cl (centres undefined) | > 43.2
O=C(CN(c1ccccc1Cl)S(=O)(=O)c1ccccc1)NCc1ccccc1 | 18.7 (≈ 45.1 µM)
CCn1c(SCc2ccccc2)nc2ccccc2c1=O | 1.3 (≈ 4.39 µM)
Cc1ccc(NC(=O)NCCN2CCCCC2)cc1Cl | > 44.4
CCOc1ccc(CC(=O)N2CCN=C2SC)cc1 | > 41.8
CCOC(=O)C(NC(C)=O)(NC(C)C)C(F)(F)F (centres undefined) | 2.2 (≈ 8.14 µM)
Cc1cccc(OCC(=O)NC2CCCCCC2)c1C | < 0.6
Fc1ccccc1CN1CCN(c2ncccn2)CC1 | 30.1 (≈ 111 µM)
CC(C)CNC(=O)CCc1nc(-c2ccccc2)no1 | 37.7 (≈ 138 µM)
CCN(C(=O)c1ccc(Cl)c([N+](=O)[O-])c1)c1ccccc1 | 35.8 (≈ 117 µM)
Cl.O=C(OCCN1CCCCC1)c1cccc(Cl)c1 | > 45.6
O=c1[nH]c(-c2ccc(O)cc2)nc2scc(-c3cccs3)c12 | 0.5 (≈ 1.53 µM)
CC(=O)C1=C(O)C(=O)N(c2ccccn2)C1c1ccc(Cl)cc1 (centres undefined) | 40.9 (≈ 124 µM)
COCCN(C(=S)Nc1cccc(C)c1C)C(C)c1ccco1 (centres undefined) | 40.1 (≈ 121 µM)

SMILES | solubility kinetic [µg/mL]
CSc1ncccc1C(=O)OCC(=O)N(C)C | > 38.1
O=C(Nc1ccon1)c1ccc(Br)s1 | 5.5 (≈ 20.1 µM)
Cc1ccc(SCC(=O)c2c(C)nc3cc(C)ccn23)cc1 | 0.7 (≈ 2.25 µM)
CC1CCN(C(=O)c2ccc([N+](=O)[O-])o2)CC1 | > 35.7
Cl.OCCN(CC#CC(O)(c1ccccc1)C1CCCCC1)CCO (centres undefined) | 53
Cc1noc(C)c1C(=O)OCC(=O)N1CCc2ccccc21 | 4.8 (≈ 16 µM)
O=C1Nc2ccccc2N2CCCC12 (centres undefined) | 27.5 (≈ 146 µM)
Cc1cccc(C)c1N1C(=O)CC(N2CCN(S(=O)(=O)c3ccccc3F)CC2)C1=O (centres undefined) | 50.7 (≈ 114 µM)
COc1cc2c(cc1OC)CN(C(=O)CCN1C(=O)C3CCCCC3C1=O)CC2 (centres undefined) | 46.2 (≈ 115 µM)
O=[N+]([O-])c1ccc(OCc2n[nH]c(=S)n2-c2ccccc2)cc1 | > 49.3
O=C(NC1CCCC1)C1CC(O)CN1C(=O)Nc1ccccc1 (centres undefined) | > 47.6
CSc1ncccc1C(=O)OCC(=O)c1ccc[nH]1 | 9.7 (≈ 35.1 µM)
OCc1cc(Br)ccc1OCc1nc2ccccc2s1 | < 0.8
O=C(Nc1sc(-c2ccccc2)cc1C(=O)O)c1ccccc1 | 45.1 (≈ 139 µM)
CCN1CCCC1CNS(=O)(=O)c1ccc(F)c(Cl)c1 (centres undefined) | 44.2 (≈ 138 µM)
CN(CC(=O)Nc1cccc(F)c1)C(=O)CSc1ccccc1F | 46.7 (≈ 133 µM)
S=c1nc(NCc2ccc3c(c2)OCO3)c2ccccc2[nH]1 | 0.6 (≈ 1.93 µM)
O=C(CSc1nncn1-c1ccccc1F)NC1CC1 | > 43.8
Cc1c(C)n(CC(O)CN2CCN(C)CC2)c2ccccc12 (centres undefined) | 43.3 (≈ 144 µM)
CCOc1ccc(N2C(=O)CNC2=S)cc1 | > 35.4
CCc1cc2cc(C)cc(C)c2nc1Cl | < 0.5
Cc1cccc(-c2noc(CCCC(=O)NC3CCCCC3)n2)c1 | 4.5 (≈ 13.7 µM)
CN1CCN(C(=O)/C=C/c2ccc(C#N)cc2)CC1 | > 38.3
CC(C)CC(Nc1ncnc2scc(-c3ccccc3)c12)C(=O)O (centres undefined) | > 51.2

SMILES | solubility kinetic [µg/mL]
Cc1cc(C)cc(NC(=S)N2CCN(c3ccccn3)CC2)c1 | 9.2 (≈ 28.2 µM)
Cc1ccc(/C=C/C(=O)OCC(=O)NCc2cccs2)o1 | 21.8 (≈ 71.4 µM)
O=C(COC(=O)c1cccc(S(=O)(=O)N2CCOCC2)c1)NCc1ccccc1 | > 62.8
CCOc1cc(/C=C2\SC(=O)N(c3ccc(O)cc3)C2=O)ccc1O | 4 (≈ 11.2 µM)
COc1ccccc1CN1CCN(Cc2nc(-c3ccccc3)no2)CC1 | 50.1 (≈ 137 µM)
COc1ccccc1OCCNC(=O)C(=O)c1c[nH]c2ccccc12 | 37.2 (≈ 110 µM)
CC(CN1CCOCC1)OC(=O)c1ccc(Cl)cc1Cl.Cl (centres undefined) | 48.9
CCC(=O)c1ccc(OCC(=O)N2CCN(CC(=O)Nc3ccccc3C(F)(F)F)CC2)cc1 | > 71.6
C/C(=N\NC(=O)c1cc(C)nc2ccccc12)c1ccco1 | > 44
CN(C(=O)C1CCC1C(=O)O)c1nc(-c2ccc(Cl)s2)cs1 (centres undefined) | 42.6 (≈ 119 µM)
O=C(O)c1ccc(NS(=O)(=O)c2cc(Cl)sc2Cl)cc1 | > 52.8
C=CCN(c1ccccc1OC)S(=O)(=O)c1cccc(C(=O)NC2=NCCS2)c1 | 7.4 (≈ 17.1 µM)
CC(=O)c1ccc(S(=O)(=O)Nc2ccc3c(c2)OCO3)cc1 | > 47.9
COc1ccc(Br)cc1CN(C)C(=O)c1ccncc1 | > 50.3
OC(CNC1Cc2ccccc2C1)COc1ccc(Cl)cc1 (centres undefined) | > 47.7
Br.COc1ccccc1N1CCN(CCCCN2C(=O)c3ccccc3C2=O)CC1 | > 71.2
O=C(CN1CCCCCC1)NCC1CCCO1.O=C(O)C(=O)O (centres undefined) | > 49.6
CCOC(=O)C(Cc1ccccc1)C(=O)NCc1ccccc1 (centres undefined) | > 46.7
NC(=O)C1CCN(c2oc(-c3cccs3)nc2S(=O)(=O)c2ccc(Cl)cc2)CC1 | 51.9 (≈ 115 µM)
O=C(NC1CCS(=O)(=O)C1)c1cc(-c2ccccc2)nc2ccccc12 (centres undefined) | > 55
CC(Nc1ccc2c(c1)OCCO2)C(=O)N1c2ccccc2CC1C (centres undefined) | > 50.8
C#CCOn1c(-n2nc(C)cc2C)nc2ccccc2c1=O | > 44.1
CC(C)Oc1ccc(C(=O)Nc2ccc([N+](=O)[O-])cc2)cc1 | < 0.3
Nc1ccc(Oc2ccc3c(c2)C(=O)N(CC2CCCO2)C3=O)cc1 (centres undefined) | > 50.8

SMILES | solubility kinetic [µg/mL]
Cc1ccc(S(=O)(=O)N2CCc3ccccc3C2)cc1 | < 0.6
Cl.O=C(CN1CCCCC1)Nc1cccc(Cl)c1 | 33.6
CCC(C)c1ccccc1NC(=O)c1cc(C)no1 (centres undefined) | > 38.7
CC(=O)Nc1ccc(C(=O)COC(=O)CCN2C(=O)C3CC=CCC3C2=O)cc1 (centres undefined) | > 59.8
Cc1ccc(Nc2cc(C)nc(-c3ccccc3)n2)cc1 | 5.2 (≈ 18.9 µM)
[O-]/[N+](=C\c1ccco1)c1ccc(Cl)cc1 | 32.5 (≈ 147 µM)
Cc1ccccc1NC(=S)N/N=C/c1ccc(O)cc1O | > 45.2
CCOC(=O)C1CCCN(C(=O)c2cccc3ccccc23)C1 (centres undefined) | > 46.7
O=[N+]([O-])c1cccnc1Oc1ccc(C2SCCS2)cc1 | < 0.3
CC(NC(=O)COc1cccnc1[N+](=O)[O-])c1ccc(F)cc1 (centres undefined) | > 47.9
Cc1ccccc1CNC(=O)CN1C(=O)c2ccccc2S1(=O)=O | 11.2 (≈ 32.5 µM)
Cc1cccc(C)c1NC(=O)CNC(=O)CNC(=O)c1ccc2c(c1)OCO2 | > 57.5
CN(C(=O)c1ccccc1)C1c2c(ccc3ccccc23)OCC1CO (centres undefined) | < 0.7
O=C1NCCN1CCNS(=O)(=O)c1ccc(F)c(Cl)c1 | > 48.3
COc1ccc(CCNC(=O)c2ccc3ccccc3n2)cc1 | 22.2 (≈ 72.5 µM)
CCCC(=O)Nc1nc(CC(=O)OCC)cs1 | > 38.4
Nc1c(C(=O)C2CC2)sc2nc3c(cc12)CCC3 | 2.2 (≈ 8.52 µM)
CC(c1ccccc1)N1CCc2[nH]c(=S)[nH]c(=O)c2C1 (centres undefined) | 19.9 (≈ 69.2 µM)
O=S(=O)(c1cccc2nonc12)N1CCCCCC1 | 15.7 (≈ 55.8 µM)
CCOC(=O)C1CCN(Cc2ccc(O)c3ncccc23)CC1 | 1.6 (≈ 5.09 µM)
COC(=O)/C(=C\C(=O)c1ccccc1)Nc1ccc(OC)cc1 | 7.6 (≈ 24.4 µM)
Cc1ccc(NC(=O)Cn2cc(C(=O)C3CC3)c3ccccc32)c(C)c1 | < 0.4
O=C(Nc1sc2c(c1C(=O)O)CCC2)c1ccccc1Cl | 41.1 (≈ 128 µM)

Source: PubChem BioAssay AID1996
